Experimental data reported in patent US20080193397A1, “Use of Peroxide Decomposers Method For the Treatment of a Material Other Than the Human Body” (BASF Aktiengesellscaft, priority 2005, published 2008).

Experiment: Squalene degradation test with free-radical initiator V65 (protective factor QS, synergy with tocopherol)
Set-up: key to QS: QS = degradation rate without stabilizer / degradation rate with it
Conditions: squalene content by GC; for QS: 250 ppm test substance in 2% azobis(2,4-dimethylvaleronitrile) in squalene, stored open 30 days at 40° C., QSx=degradation rate0/degradation ratex; for QS + 250 ppm Tocopherol: 250 ppm test substance plus 250 ppm tocopherol in 2% azobis(2,4-dimethylvaleronitrile) in squalene, 30 days at 40° C.
Experimental: General procedure for determining the synergistic effect of peroxide decomposers used according to the invention with tocopherol
3 ml of a 2% strength solution of azobis(2,4.dimethylvaleronitrile). (V65, Wako Chemical Co.) in squalene are poured together with 250 ppm of test substance (based on the squalene solution) into Fiolax test tubes ([…]) and thoroughly mixed using a laboratory shaker. The samples are then stored open in a circulatory drying cabinet for 30 days at 40° C. At intervals of 7 days, the squalene content of the samples is ascertained using gas chromatography. The reference used is a sample without the […]. The data points are documented in an XY graph and the effectiveness of the test substances is determined by reference to the slope of the decomposition curves in comparison to the reference sample.
A measure of the protective effect of a test compound is the factor QS, which is a measure of how much a stabilizer reduces the degradation rate. QSx=degradation rate0/degradation ratex

| Compound | QS | QS + 250 ppm Tocopherol |
| --- | --- | --- |
| Sc1nccs1 [compound 3] | 2.75 | 4.25 |
| S=c1cc[nH]c(=S)[nH]1 [compound 4] | 1.13 | 2.08 |
| CCCc1cc(O)nc(S)n1 [compound 5] | 2.58 | 4.44 |
| S=C1CSc2ccccc2N1 [compound 6] | 3.03 | 3.75 |
| On1ccccc1=S [compound 7] | 1.47 | 2.58 |
| Sc1nnc(-c2ccccc2)[nH]1 [compound 8] | 1.34 | 1.8 |
| Oc1cccnc1S [compound 9] | 1.66 | 2.25 |
| O=C(O)c1cccnc1S [compound 10] | 1.18 | 1.65 |
| Tocopherol [reference compound] | 1.3 | – |
